Patent US11071731B2, “Allosteric modulators of the mu opioid receptor” (Chiromics, LLC, priority 2017, dated 2021)

Experiments:
[1] = target: T1, mu opioid receptor (MOR) (Homo sapiens, UniProt P35372); assay: PathHunter β-arrestin recruitment assay, PAM mode with EC20 endomorphin-1; type: cell-based
Procedure, shortened: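 Enzyme fragment complementation read-out: β-gal ED fragment fused to receptor, EA fused to β-arrestin, recruitment restoring β-gal activity detected by chemiluminescence. EC50 and percent maximal response derived for each compound.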

[2] = target: T2, MOR (Homo sapiens, UniProt P35372); assay: cell-based; conditions: EC20 Oxycodone agonism of MOR
[3] = target: T2, MOR; assay: cell-based; conditions: EC20 morphine agonism of MOR
[4] = target: T1, mu opioid receptor (MOR); assay: Hit Hunter cAMP signaling assay (adenylyl cyclase inhibition), PAM mode with EC20 endomorphin-1; type: cell-based
[5] = target: T2, MOR; assay: cell-based; conditions: EC20 morphine agonism of MOR; remark: listed apart in the source
[6] = target: T2, MOR; assay: cell-based; conditions: EC20 Oxycodone agonism of MOR; remark: listed apart in the source
[7] = maximal response for β-arrestin recruitment
[8] = β-arrestin recruitment, read-out: β-arr. EC50
[9] = cAMP EC50, adenylyl cyclase inhibition
[10] = maximal response for adenylyl cyclase inhibition
[11] = adenylyl cyclase inhibition, read-out: cAMP EC50
[12] = maximal response, β-arrestin recruitment
[13] = maximal response, adenylyl cyclase inhibition

T1 sequence (P35372 whole entry, the tested form may be a part): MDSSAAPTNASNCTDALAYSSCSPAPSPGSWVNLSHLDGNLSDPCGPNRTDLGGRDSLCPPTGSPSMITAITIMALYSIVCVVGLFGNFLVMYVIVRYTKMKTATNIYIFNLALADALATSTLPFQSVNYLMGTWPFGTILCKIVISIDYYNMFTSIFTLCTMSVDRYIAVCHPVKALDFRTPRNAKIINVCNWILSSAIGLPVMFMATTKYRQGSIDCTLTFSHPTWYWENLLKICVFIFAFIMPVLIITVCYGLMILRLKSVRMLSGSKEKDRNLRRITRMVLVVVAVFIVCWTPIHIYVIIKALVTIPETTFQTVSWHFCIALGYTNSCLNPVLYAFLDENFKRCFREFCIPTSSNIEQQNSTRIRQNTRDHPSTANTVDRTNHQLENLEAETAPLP
T2 sequence (P35372 whole entry): as the sequence (P35372 whole entry, the tested form may be a part) above

Row | Structure (SMILES) | β-arr Max. Resp. [1, 7] | EC50 [1, 8] [nM] | EC50 [4, 9] [nM] | cAMP Max. Resp. [4, 10] | EC50 [4, 11] [nM] | also measured
1 | Fc1cnc(Cl)nc1N1CCCCC1c1cccc(C(F)(F)F)n1 (stereo not shown) [compound 123] | F (F represents a maximal response of > 60%) | 700 to 2100 | < 700 | E (E represents a maximal response of 40-60%) | – | Max. Response ([1]; β-arrestin, EC20 EM-1 agonism of MOR): 190; EC50 ([1]; β-arrestin, EC20 EM-1 agonism of MOR, read-out: RC50 (the source's name)): 1020 nM; EC50 ([2]; RC50, cAMP): > 25000 nM; Max. Response ([2]; cAMP): 0; EC50 ([3]; RC50, cAMP): > 25000 nM; Max. Response ([3]; cAMP): 0; EC50 ([4]; RC50, cAMP, EC20 EM-1 agonism of MOR): 590 nM; Max. Response ([4]; cAMP, EC20 EM-1 agonism of MOR): 43; EC50 ([5]; RC50, β-arrestin): 14100 nM; Max. Response ([5]; β-arrestin): 59; EC50 ([6]; RC50, β-arrestin): > 25000 nM; Max. Response ([6]; β-arrestin): 17
2 | Cc1nccc(C2CCCCN2c2nc(Cl)ccc2F)n1 (stereo not shown) [compound 381] | D (D represents a maximal response of < 40%) | < 700 | – | D (D represents a maximal response of < 40%) | < 700 | –
3 | COC(=O)c1ccc(N2CCCCC2c2ccc(F)c(Cl)c2)cc1 (stereo not shown) [compound 477] | – | > 2100 | > 2100 | – | – | β-arr Max. Resp. [1, 12]: F (F represents a maximal response of > 60%); cAMP Max. Resp. [4, 13]: D (D represents a maximal response of < 40%)
4 | COc1ccc(C2CCCCN2S(=O)(=O)c2ccn(C)n2)cc1Br (stereo not shown) [compound 483] | – | > 2100 | > 2100 | – | – | β-arr Max. Resp. [1, 12]: D (D represents a maximal response of < 40%); cAMP Max. Resp. [4, 13]: D (D represents a maximal response of < 40%)
5 | Cc1ccc(C2CCCCN2c2nc(Cl)ncc2F)cn1 (stereo not shown) [compound 411] | D (D represents a maximal response of < 40%) | < 700 | < 700 | D (D represents a maximal response of < 40%) | – | –
6 | COc1ccc(C2CCCCN2c2cncc(Cl)n2)cc1Br (stereo not shown) [compound 229] | F (F represents a maximal response of > 60%) | > 2100 | > 2100 | F (F represents a maximal response of > 60%) | – | –
7 | Fc1cnc(Cl)nc1N1CCCCC1c1cccc(C(F)F)c1 (stereo not shown) [compound 298] | F (F represents a maximal response of > 60%) | > 2100 | < 700 | F (F represents a maximal response of > 60%) | – | –
8 | Fc1cc(C2COCCN2c2nc(Cl)ncc2F)cc(C(F)(F)F)c1 (racemic) [Compound 190] | F (F represents a maximal response of > 60%) | 700 to 2100 | – | F (F represents a maximal response of > 60%) | < 700 | –
9 | N#Cc1cc(C2CCCCN2S(=O)(=O)c2ccc(Cl)cc2)ccc1F (racemic) [compound 58] | F (F represents a maximal response of > 60%) | > 2100 | – | D (D represents a maximal response of < 40%) | > 2100 | –
10 | [2H]C1(c2cccc(C(F)(F)F)c2)C(F)CCCN1c1nc(Cl)ncc1F (single isomer, unassigned) [compound 208] | F (F represents a maximal response of > 60%) | > 2100 | – | F (F represents a maximal response of > 60%) | – | –
11 | Fc1ccc(C2CCCCN2c2nc(Cl)ncc2F)nc1 (stereo not shown) [compound 372] | D (D represents a maximal response of < 40%) | < 700 | < 700 | D (D represents a maximal response of < 40%) | – | –
12 | Cc1ncc(F)c(N2CCCCC2c2cccc(F)n2)n1 (stereo not shown) [compound 270] | D (D represents a maximal response of < 40%) | > 2100 | > 2100 | D (D represents a maximal response of < 40%) | – | –
13 | FC(F)(F)c1cccc(C2CCCCN2c2ccc(Cl)cc2)n1 (stereo not shown) [compound 454] | – | > 2100 | – | – | > 2100 | β-arr Max. Resp. [1, 12]: E (E represents a maximal response of 40-60%); cAMP Max. Resp. [4, 13]: D (D represents a maximal response of < 40%)
14 | O=S(=O)(c1ccc(Cl)cc1)N1CCCCC1c1ccc(F)cn1 (racemic) [compound 54] | F (F represents a maximal response of > 60%) | > 2100 | – | E (E represents a maximal response of 40-60%) | > 2100 | –
15 | Fc1cc(C2CCCCN2c2nc(Cl)ncc2F)ccc1Br (stereo not shown) [compound 290] | F (F represents a maximal response of > 60%) | < 700 | < 700 | D (D represents a maximal response of < 40%) | – | –
16 | COc1ccc(C2CCCCN2c2ccc(C(F)(F)F)cn2)cc1Br (stereo not shown) [compound 232] | F (F represents a maximal response of > 60%) | > 2100 | > 2100 | F (F represents a maximal response of > 60%) | – | –

Row | Structure (SMILES) | β-arr Max. Resp. [1, 7] | EC50 [1, 8] [nM] | EC50 [4, 9] [nM] | cAMP Max. Resp. [4, 10] | EC50 [4, 11] [nM] | also measured
17 | Fc1ccc(C2CCCCN2Cc2cc(Cl)ccc2F)cc1 (stereo not shown) [compound 163] | F (F represents a maximal response of > 60%) | 700 to 2100 | < 700 | E (E represents a maximal response of 40-60%) | – | –
18 | Fc1ccc(C2CCCCN2Cc2cc(Cl)cc(Cl)c2)cc1Cl (stereo not shown) [compound 151] | F (F represents a maximal response of > 60%) | > 2100 | > 2100 | D (D represents a maximal response of < 40%) | – | –
19 | FC(F)(F)c1cccc(C2CCCCN2Cc2cc(Cl)ccc2Cl)n1 (stereo not shown) [compound 176] | F (F represents a maximal response of > 60%) | 700 to 2100 | 700 to 2100 | F (F represents a maximal response of > 60%) | – | –
20 | Fc1ccc(C2C3CCC(C3)N2Cc2cc(Cl)ccc2F)cc1Cl (stereo not shown) [compound 217] | F (F represents a maximal response of > 60%) | – | – | D (D represents a maximal response of < 40%) | – | EC50 ([1]; β-arr. EC50, β-arrestin recruitment): 700 to 2100 nM; EC50 [4]: > 2100 nM
21 | Fc1cnc(Cl)nc1N1CCCCC1c1ccc(Cl)c(C(F)(F)F)c1 (single isomer, unassigned) [compound 345] | D (D represents a maximal response of < 40%) | < 700 | < 700 | D (D represents a maximal response of < 40%) | – | –
22 | O=S(=O)(c1ccc(Cl)cc1)N1CCCCC1c1ccc(F)c(C(F)(F)F)c1 (racemic) [compound 55] | F (F represents a maximal response of > 60%) | > 2100 | – | E (E represents a maximal response of 40-60%) | 700 to 2100 | β-arrestin Max Response ([1]; β-arrestin recruitment, activity switching by MOR PAMs): F (F represents a maximal response of >60%); EC50 ([1]; β-arrestin recruitment, activity switching by MOR PAMs, read-out: β-arrestin EC50): > 2100 nM; cAMP Max Resp. ([4]; adenylyl cyclase inhibition, activity switching by MOR PAMs): D (D represents a maximal response of < 40%); EC50 ([4]; adenylyl cyclase inhibition, activity switching by MOR PAMs, read-out: cAMP EC50): > 2100 nM
23 | Fc1cnc(Cl)nc1N1CCCCCC1c1cccc(C(F)(F)F)n1 (stereo not shown) [compound 253] | F (F represents a maximal response of > 60%) | > 2100 | – | E (E represents a maximal response of 40-60%) | > 2100 | –
24 | Fc1cnc(Cl)nc1N1CCCCC1c1cccc2nccn12 (stereo not shown) [compound 284] | D (D represents a maximal response of < 40%) | > 2100 | > 2100 | E (E represents a maximal response of 40-60%) | – | –
25 | CC1CC(c2cccc(C(F)(F)F)c2)N(c2nc(Cl)ncc2F)C1 (stereo not shown) [compound 448] | – | > 2100 | – | – | > 2100 | β-arr Max. Resp. [1, 12]: F (F represents a maximal response of > 60%); cAMP Max. Resp. [4, 13]: D (D represents a maximal response of < 40%)
26 | Cn1cnc2cc(C(F)(F)F)cc(C3CCCCN3c3nc(Cl)ncc3F)c21 (stereo not shown) [compound 300] | E (E represents a maximal response of 40-60%) | > 2100 | > 2100 | F (F represents a maximal response of > 60%) | – | –
27 | Fc1cnc(Cl)cc1N1CCCCC1c1cccc(C(F)(F)F)c1 (stereo not shown) [compound 261] | F (F represents a maximal response of > 60%) | 700 to 2100 | > 2100 | D (D represents a maximal response of < 40%) | – | –
28 | Cc1ccc(C(F)(F)F)cc1C1CCCCN1c1nc(Cl)ncc1F (stereo not shown) [compound 134] | F (F represents a maximal response of > 60%) | > 2100 | > 2100 | D (D represents a maximal response of < 40%) | – | –
29 | COc1ccc(C2C(C)CCCN2c2nc(Cl)ncc2F)cc1Br (stereo not shown) [compound 249] | F (F represents a maximal response of > 60%) | > 2100 | – | E (E represents a maximal response of 40-60%) | > 2100 | –
30 | COc1ncc(N2CCCCC2c2cccc(F)n2)c(F)n1 (stereo not shown) [compound 296] | D (D represents a maximal response of < 40%) | > 2100 | – | D (D represents a maximal response of < 40%) | > 2100 | –
31 | FC(F)(F)c1cccc(C2CCCCN2Cc2cncc(Cl)c2)n1 (stereo not shown) [compound 143] | D (D represents a maximal response of < 40%) | > 2100 | > 2100 | D (D represents a maximal response of < 40%) | – | –
